Assay results published in PubChem BioAssay (NCI).
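Test compounds were applied to cells in 96-well plates for 48 hours at 5 doses. The concentration for 50% growth inhibition is given as GI50. TGI is the concentration that stops growth completely.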

Columns and labels:
Test in all cases: NCI tumour cell line growth inhibition, 48 h
UACC-257 melanoma = test system: UACC-257 melanoma
U251 CNS = test system: U251 CNS
NCI-H522 lung = test system: NCI-H522 lung
NCI-H23 lung = test system: NCI-H23 lung
UO-31 renal = test system: UO-31 renal
T-47D breast = test system: T-47D breast
A549 NSCLC = test system: A549 NSCLC
OVCAR-3 ovarian = test system: OVCAR-3 ovarian
RXF 393 renal = test system: RXF 393 renal
CAKI-1 renal = test system: CAKI-1 renal
IGROV1 ovarian = test system: IGROV1 ovarian
HS 578T breast = test system: HS 578T breast
SW-620 colon = test system: SW-620 colon
ACHN renal = test system: ACHN renal
SK-MEL-28 melanoma = test system: SK-MEL-28 melanoma

SMILES	TGI (UACC-257 melanoma) [µM]	TGI (U251 CNS) [µM]	TGI (NCI-H522 lung) [µM]	TGI (NCI-H23 lung) [µM]	TGI (UO-31 renal) [µM]	TGI (T-47D breast) [µM]	TGI (A549 NSCLC) [µM]	TGI (OVCAR-3 ovarian) [µM]	TGI (RXF 393 renal) [µM]	TGI (CAKI-1 renal) [µM]	TGI (IGROV1 ovarian) [µM]	TGI (HS 578T breast) [µM]	TGI (SW-620 colon) [µM]	TGI (ACHN renal) [µM]	TGI (SK-MEL-28 melanoma) [µM]	GI50 (NCI-H23 lung) [µM]	GI50 (UO-31 renal) [µM]	GI50 (CAKI-1 renal) [µM]
Cc1ccc(O)c(C(c2cc(C)ccc2O)c2cc([N+](=O)[O-])ccc2O)c1	37.6	46.4	30	28.9	21.5	77.8	31.2	25.4	54	24.8	24.4	37.9	67	27.1	39.6			
COC(=O)[C@@H]1[C@H]2CC[C@]3(C)[C@@H](OC(C)=O)CC[C@H]3[C@@H]2CC[C@H]1C(C)=O	> 100	> 100	> 100	> 100	> 100	> 100	> 100	> 100	> 100	> 100	> 100	> 100	> 100	> 100	> 100			
Cc1ccc(CN2CCN(Cc3ccc(C)o3)C(C)C2)o1 (stereo not drawn)	> 100	> 100	> 100	> 100	> 100	> 100	> 100	> 100	> 100	> 100	> 100	> 100	> 100	> 100	> 100			
COc1cc(-c2ccccc2)cn2c1nc1ccccc12	47.5	52.2	40.6	> 100	32.4	83.6	51.4	40.8	34.6	52.3	55.9	71.4	> 100	49.2	33.2			
COc1ccc2[nH]c3c(O)c(-c4c(C)cc5c([nH]c6ccc(OC)cc65)c4O)c(C)cc3c2c1	8.32	7.98	9.2	8.38	7.12	13.8	7.97	7.79	8.82	8.39	8.04	11.5	10.3	8.15	9.64	4.48	3.78	4.27
CC1(C)CCC[C@@]2(C)C1CC[C@@]1(CO1)[C@@H]2/C=C\C(C=O)CC=O (stereo partly drawn)	> 100	> 100	> 100	> 100	> 100	> 100	> 100	> 100	> 100	> 100	> 100	> 100	> 100	> 100	> 100			
COC1(OC)C2C=CC1C([C@](C)(N)CO)C2 (stereo partly drawn)	> 100	> 100	> 100	> 100	> 100	> 100	> 100	> 100	> 100	> 100	> 100	> 100	> 100	> 100	> 100			
COC(=O)C1=COC2OC3CC1C2C(C)O3 (stereo not drawn)	> 100	> 100	> 100	> 100	> 100	> 100	> 100	> 100	> 100	> 100	> 100	> 100	> 100	> 100	> 100			
CCOC(=O)c1csc(-c2cn(C)c3c2C(=O)C(OC)=CC3=O)n1	> 78.9	> 100	> 100	> 56.7	> 100	> 100	97.1	> 31.9	71.8	> 100	> 100	> 58.8	> 100	> 100	> 100			
COC(=O)[C@H](C)N(C)C(=O)[C@H](C)N1[C@@H](c2ccccc2)COC1(C)C	> 100	> 100	> 100	> 100	> 100	> 100	> 100	> 100	> 100	> 100	> 100	> 100	> 100	> 100	> 100			
C1=Cc2cccc3occ(c23)C=C1	> 100	> 100	> 100	> 100	> 100	> 100	> 100	> 100	88.3	> 100	> 100	> 100	> 100	> 100	> 100			
Cn1c(N)c(/C=C/C(=O)Oc2ccccc2)c(=O)n(C)c1=O	> 100	> 100	> 100	> 100	> 100	> 100	> 100	> 100	> 100	63.8	> 100	> 100	> 100	> 100	> 100			
CC[C@]1(Cc2ccc(OC)c(OC)c2)C=[N+]([O-])O[C@H](OCc2ccccc2)[C@@H]1OC(C)=O	> 100	> 100	28.5	> 100	> 100	> 100	> 100	42.5	55.4	80.9	> 100	60.5	> 100	> 100	84.6			
